From article PMC10165273, “Itch receptor MRGPRX4 interacts with the receptor activity–modifying proteins” (The Journal of Biological Chemistry, 2023)
Several values for one entry are separate records, joined by “and”; a condition that tells them apart may be missing. Equal entries are not always repeated. Where two headings read alike, the source gives them in different places.

Key:
MRGPRX4 + RAMP2 = target: T1, MRGPRX4 + RAMP2 (Homo sapiens, UniProt Q96LA9); assay: IP1 accumulation, MRGPRX4 coexpressed with RAMP2; format: cell-based; conditions: log [nateglinide] (M) -7.49485; MRGPRX4+RAMP2 1pg 1:1; Supplementary Figure 5e, 5g
T1 construct: expressed in transfected cells; host or cells: HEK293T
T1 sequence (Q96LA9 whole entry): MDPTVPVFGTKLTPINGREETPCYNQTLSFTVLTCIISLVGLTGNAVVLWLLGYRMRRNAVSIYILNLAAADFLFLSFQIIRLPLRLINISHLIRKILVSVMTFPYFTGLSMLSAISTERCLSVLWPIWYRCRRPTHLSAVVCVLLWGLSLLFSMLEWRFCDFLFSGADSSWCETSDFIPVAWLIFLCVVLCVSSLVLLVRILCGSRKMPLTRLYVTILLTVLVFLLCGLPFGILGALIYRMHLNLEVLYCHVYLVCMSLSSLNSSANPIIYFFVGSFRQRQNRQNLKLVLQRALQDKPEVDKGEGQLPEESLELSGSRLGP
Description: (§1) HEK293T cells were transfected with 1 pg/cell of MRGPRX4 DNA, and the amount of DNA was kept constant at 2 pg/cell with pcDNA3.1(+) empty vector, unless otherwise specified. Twenty four hours after transfection, IP1 assay was performed as previously described ([51]). When applicable, cells were treated with 1 μM YM254890 (YM) or different concentrations of U73122 for 1 h prior to addition of agonist or buffer. After incubation for 2 h, HTRF reagents and IP1 calibration standards were added and incubated for 2 h in the dark at room temperature. Time-resolved fluorescence signals were read on the BioTek Synergy NEO-TRF Hybrid multi-mode reader (BioTek Instruments). All data were carried out in three independent experiments with three technical replicate each.
(§2) For RAMP DNA titration assay, HEK293T cells were cotransfected with a constant amount of 1 pg/cell of FLAG-MRGPRX4-GFP10-1D4 to which a serial dilution of 1, 0.75, 0.5, 0.25, or 0 pg/cell of each HA-RAMP-OLLAS was added. For a homogenous transfection of MRGPRX4, a master mix of MRGPRX4 DNA was made prior to addition of the RAMP DNA. […]
(§3) Data reduction, standard calibration, and transformation of HTRF data were performed as previously described ([51]). Normalized IP1 values were calculated relative to the unstimulated mock-transfected cells (set to 0%) and fully stimulated MRGPRX4 (alone if applicable) (set to 100%).

MRGPRX4 + RAMP3 = target: T2, MRGPRX4 + RAMP3 (Homo sapiens, UniProt Q96LA9); assay: IP1 accumulation, MRGPRX4 coexpressed with RAMP3; format: cell-based; set-up: key to IP1 Basal / response to agonist, X4:ramp3.I:0.25 / response to agonist, X4:ramp3.I:0.5 / response to agonist, X4:ramp3.I:1: % IP1; unstimulated mock = 0%, fully stimulated MRGPRX4 = 100%; conditions: for activation at 100 µM / activation at 20 µM / activation at 4 µM / activation at 0.8 µM / activation at […] / activation at 0.032 µM: 2 h; for EC50: Figure 4a top, individual replicates, read-out: potency (converted)
T2 construct: expressed in transfected cells; host or cells: HEK293T
T2 sequence (Q96LA9 whole entry): as above
Description: as §1, §2, §3

**Q.** For `CC(C)[C@H]1CC[C@H](C(=O)N[C@H](Cc2ccccc2)C(=O)O)CC1` [Nateglinide], which “IP1 accumulation (normalized)” value (MRGPRX4 + RAMP2) is on record?
**A.** 3.035 and 3.588 and 4.695

**Q.** And the activation at 100 µM (MRGPRX4 + RAMP3; log [nateglinide] (M) -4, MRGPRX4+RAMP3 0.75pg 1:0.75, Supplementary Figure 5f, read-out: IP1 accumulation (normalized))?
**A.** 80.5%

**Q.** And the activation at 20 µM (MRGPRX4 + RAMP3; log [nateglinide] (M) -4.69897, MRGPRX4+RAMP3 0.75pg 1:0.75, Supplementary Figure 5f, read-out: IP1 accumulation (normalized))?
**A.** 75.4%

**Q.** And the activation at 4 µM (MRGPRX4 + RAMP3; log [nateglinide] (M) -5.39794, MRGPRX4+RAMP3 0.5pg 1:0.5, Supplementary Figure 5f, read-out: IP1 accumulation (normalized))?
**A.** 44.2%

**Q.** And the activation at 4 µM (MRGPRX4 + RAMP3; log [nateglinide] (M) -5.39794, MRGPRX4+RAMP3 0.75pg 1:0.75, Supplementary Figure 5f, read-out: IP1 accumulation (normalized))?
**A.** 36.8%

**Q.** And the activation at 0.8 µM (MRGPRX4 + RAMP3; log [nateglinide] (M) -6.09691, MRGPRX4+RAMP3 0.5pg 1:0.5, Supplementary Figure 5f, read-out: IP1 accumulation (normalized))?
**A.** 21.5%

**Q.** What about the activation at 0.8 µM (MRGPRX4 + RAMP3; log [nateglinide] (M) -6.09691, MRGPRX4+RAMP3 0.75pg 1:0.75, Supplementary Figure 5f, read-out: IP1 accumulation (normalized)) of the same molecule?
**A.** 14.8%

**Q.** And the activation at 0.8 µM (MRGPRX4 + RAMP3; log [nateglinide] (M) -6.09691, MRGPRX4+RAMP3 1pg 1:1, Supplementary Figure 5f, 5g, read-out: IP1 accumulation (normalized))?
**A.** 20.8%

**Q.** And the activation at […] (MRGPRX4 + RAMP3; log [nateglinide] (M) -6.79588, MRGPRX4+RAMP3 0.5pg 1:0.5, Supplementary Figure 5f, read-out: IP1 accumulation (normalized))?
**A.** 13.1%

**Q.** And the activation at […] (MRGPRX4 + RAMP3; log [nateglinide] (M) -6.79588, MRGPRX4+RAMP3 0.75pg 1:0.75, Supplementary Figure 5f, read-out: IP1 accumulation (normalized))?
**A.** 12%

**Q.** What about the activation at 0.032 µM (MRGPRX4 + RAMP3; log [nateglinide] (M) -7.49485, MRGPRX4+RAMP3 0.5pg 1:0.5, Supplementary Figure 5f, read-out: IP1 accumulation (normalized)) of the same molecule?
**A.** 12.9%

**Q.** And the activation at 0.032 µM (MRGPRX4 + RAMP3; log [nateglinide] (M) -7.49485, MRGPRX4+RAMP3 0.75pg 1:0.75, Supplementary Figure 5f, read-out: IP1 accumulation (normalized))?
**A.** 9.2%

**Q.** What about the activation at 0.032 µM (MRGPRX4 + RAMP3; log [nateglinide] (M) -7.49485, MRGPRX4+RAMP3 1pg 1:1, Supplementary Figure 5f, 5g, read-out: IP1 accumulation (normalized)) of the same molecule?
**A.** 13.1%

**Q.** What about the activation at 100 µM (MRGPRX4 + RAMP3; ratio MRGPRX4:RAMP3 1:0.25, log [Nateglinide] (M) -4, Fig S3c, read-out: IP1 accumulation) of the same molecule?
**A.** 75.8%

**Q.** And the activation at 20 µM (MRGPRX4 + RAMP3; ratio MRGPRX4:RAMP3 1:0.25, log [Nateglinide] (M) -4.69897, Fig S3c, read-out: IP1 accumulation)?
**A.** 68.5%

**Q.** What about the activation at 4 µM (MRGPRX4 + RAMP3; ratio MRGPRX4:RAMP3 1:0.25, log [Nateglinide] (M) -5.39794, Fig S3c, read-out: IP1 accumulation) of the same molecule?
**A.** 41%

**Q.** What about the activation at 0.8 µM (MRGPRX4 + RAMP3; ratio MRGPRX4:RAMP3 1:0.25, log [Nateglinide] (M) -6.09691, Fig S3c, read-out: IP1 accumulation) of the same molecule?
**A.** 25.1%

**Q.** What about the activation at […] (MRGPRX4 + RAMP3; ratio MRGPRX4:RAMP3 1:0.25, log [Nateglinide] (M) -6.79588, Fig S3c, read-out: IP1 accumulation) of the same molecule?
**A.** 23.1%

**Q.** What about the activation at 0.032 µM (MRGPRX4 + RAMP3; ratio MRGPRX4:RAMP3 1:0.25, log [Nateglinide] (M) -7.49485, Fig S3c, read-out: IP1 accumulation) of the same molecule?
**A.** 21%

**Q.** What about the activation at 100 µM (MRGPRX4 + RAMP3; ratio MRGPRX4:RAMP3 1:0.5, log [Nateglinide] (M) -4, Fig S3c, read-out: IP1 accumulation) of the same molecule?
**A.** 91%

**Q.** And the activation at 20 µM (MRGPRX4 + RAMP3; ratio MRGPRX4:RAMP3 1:0.5, log [Nateglinide] (M) -4.69897, Fig S3c, read-out: IP1 accumulation)?
**A.** 74.7%

**Q.** What about the activation at 4 µM (MRGPRX4 + RAMP3; ratio MRGPRX4:RAMP3 1:0.5, log [Nateglinide] (M) -5.39794, Fig S3c, read-out: IP1 accumulation) of the same molecule?
**A.** 39.2%

**Q.** And the activation at 0.8 µM (MRGPRX4 + RAMP3; ratio MRGPRX4:RAMP3 1:0.5, log [Nateglinide] (M) -6.09691, Fig S3c, read-out: IP1 accumulation)?
**A.** 21.5%

**Q.** What about the activation at […] (MRGPRX4 + RAMP3; ratio MRGPRX4:RAMP3 1:0.5, log [Nateglinide] (M) -6.79588, Fig S3c, read-out: IP1 accumulation) of the same molecule?
**A.** 16.2%

**Q.** What about the activation at 0.032 µM (MRGPRX4 + RAMP3; ratio MRGPRX4:RAMP3 1:0.5, log [Nateglinide] (M) -7.49485, Fig S3c, read-out: IP1 accumulation) of the same molecule?
**A.** 16.8%

**Q.** And the activation at 100 µM (MRGPRX4 + RAMP3; ratio MRGPRX4:RAMP3 1:1, log [Nateglinide] (M) -4, Fig S3c, read-out: IP1 accumulation)?
**A.** 86.2%

**Q.** What about the activation at 20 µM (MRGPRX4 + RAMP3; ratio MRGPRX4:RAMP3 1:1, log [Nateglinide] (M) -4.69897, Fig S3c, read-out: IP1 accumulation) of the same molecule?
**A.** 67.6%

**Q.** And the activation at 4 µM (MRGPRX4 + RAMP3; ratio MRGPRX4:RAMP3 1:1, log [Nateglinide] (M) -5.39794, Fig S3c, read-out: IP1 accumulation)?
**A.** 32.5%

**Q.** And the activation at 0.8 µM (MRGPRX4 + RAMP3; ratio MRGPRX4:RAMP3 1:1, log [Nateglinide] (M) -6.09691, Fig S3c, read-out: IP1 accumulation)?
**A.** 18.7%

**Q.** What about the activation at […] (MRGPRX4 + RAMP3; ratio MRGPRX4:RAMP3 1:1, log [Nateglinide] (M) -6.79588, Fig S3c, read-out: IP1 accumulation) of the same molecule?
**A.** 15.5%

**Q.** And the activation at 0.032 µM (MRGPRX4 + RAMP3; ratio MRGPRX4:RAMP3 1:1, log [Nateglinide] (M) -7.49485, Fig S3c, read-out: IP1 accumulation)?
**A.** 13.9%

**Q.** And the activation at 100 µM (MRGPRX4 + RAMP3; ratio MRGPRX4:RAMP3 1:2, log [Nateglinide] (M) -4, Fig S3c, read-out: IP1 accumulation)?
**A.** 83.7%

**Q.** What about the activation at 4 µM (MRGPRX4 + RAMP3; ratio MRGPRX4:RAMP3 1:2, log [Nateglinide] (M) -5.39794, Fig S3c, read-out: IP1 accumulation) of the same molecule?
**A.** 28.1%

**Q.** What about the activation at 0.8 µM (MRGPRX4 + RAMP3; ratio MRGPRX4:RAMP3 1:2, log [Nateglinide] (M) -6.09691, Fig S3c, read-out: IP1 accumulation) of the same molecule?
**A.** 16.1%

**Q.** And the activation at […] (MRGPRX4 + RAMP3; ratio MRGPRX4:RAMP3 1:2, log [Nateglinide] (M) -6.79588, Fig S3c, read-out: IP1 accumulation)?
**A.** 14.2%

**Q.** And the activation at 0.032 µM (MRGPRX4 + RAMP3; ratio MRGPRX4:RAMP3 1:2, log [Nateglinide] (M) -7.49485, Fig S3c, read-out: IP1 accumulation)?
**A.** 12.5%

**Q.** What about the Emax (MRGPRX4 + RAMP3; Figure 4a bottom, DNA ratio MRGPRX4:RAMP3 1:0.5, MRGPRX4 alone = 100, read-out: efficacy) of the same molecule?
**A.** 86.9%

**Q.** What about the EC50 (MRGPRX4 + RAMP3; DNA ratio MRGPRX4:RAMP3 1:0.25) of the same molecule?
**A.** 11.8 µM and 9.51 µM and 7.13 µM

**Q.** What about the EC50 (MRGPRX4 + RAMP3; DNA ratio MRGPRX4:RAMP3 1:0.5) of the same molecule?
**A.** 11.4 µM and 8.91 µM and 11.9 µM

**Q.** And the EC50 (MRGPRX4 + RAMP3; DNA ratio MRGPRX4:RAMP3 1:0.75)?
**A.** 11.6 µM and 10 µM and 5.04 µM

**Q.** What about the EC50 (MRGPRX4 + RAMP3; DNA ratio MRGPRX4:RAMP3 1:1) of the same molecule?
**A.** 11 µM and 13.4 µM and 7.31 µM

**Q.** And the “response to agonist, X4:ramp3.I:0.25” value (MRGPRX4 + RAMP3; Figure 4c-f, agonist 100µM, X4:ramp3 1:0.25, MRGPRX4 = 100)?
**A.** 78.1524 and 81.0936
